Measurements taken from the kinase profiling compilation of Christmann-Franck et al. (2016).

Columns and labels:
Assay in all cases: KINOMEscan competition binding
Conditions in all cases: compound 10.0 µM
FES (human) = FES (human) (UniProt P07332)
[1] = test system: EGFR (human), P00533 [L858R]
[2] = test system: ABL1 (human), P00519 [T315I]
[3] = test system: FLT3 (human), P36888 [D835Y]
[4] = test system: ABL1 (human), P00519 [F317L]
PTK6 (human) = PTK6 (human) (UniProt Q13882)
EGFR (human) = EGFR (human) (UniProt P00533)
FGFR1 (human) = FGFR1 (human) (UniProt P11362)
FGFR1 (human), sequence (P11362 whole entry, looked up): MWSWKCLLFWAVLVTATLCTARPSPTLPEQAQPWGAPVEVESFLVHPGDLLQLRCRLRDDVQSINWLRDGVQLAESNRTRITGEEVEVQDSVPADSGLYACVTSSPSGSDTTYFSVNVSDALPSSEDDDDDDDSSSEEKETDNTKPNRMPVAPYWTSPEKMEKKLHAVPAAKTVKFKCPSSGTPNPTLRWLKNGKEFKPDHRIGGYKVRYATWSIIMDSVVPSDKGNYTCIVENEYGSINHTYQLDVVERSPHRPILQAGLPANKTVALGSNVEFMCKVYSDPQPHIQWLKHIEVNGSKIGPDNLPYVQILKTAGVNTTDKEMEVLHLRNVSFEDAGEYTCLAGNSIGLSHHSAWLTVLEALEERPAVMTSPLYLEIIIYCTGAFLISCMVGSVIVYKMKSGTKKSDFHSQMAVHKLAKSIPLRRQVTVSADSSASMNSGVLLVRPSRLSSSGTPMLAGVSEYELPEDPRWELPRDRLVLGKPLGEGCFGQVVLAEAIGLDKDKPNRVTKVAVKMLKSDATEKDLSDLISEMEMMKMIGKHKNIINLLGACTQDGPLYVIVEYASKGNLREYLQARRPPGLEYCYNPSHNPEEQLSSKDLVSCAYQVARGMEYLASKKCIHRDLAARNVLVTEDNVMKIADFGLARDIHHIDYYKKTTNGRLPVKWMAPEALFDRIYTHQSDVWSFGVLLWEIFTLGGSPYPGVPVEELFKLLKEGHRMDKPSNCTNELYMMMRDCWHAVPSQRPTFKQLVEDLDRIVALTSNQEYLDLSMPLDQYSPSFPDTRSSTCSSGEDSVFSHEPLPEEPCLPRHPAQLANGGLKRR

STK10 (human) = STK10 (human) (UniProt O94804)
TEK (human) = TEK (human) (UniProt Q02763)
TEK (human), sequence (Q02763 whole entry, looked up): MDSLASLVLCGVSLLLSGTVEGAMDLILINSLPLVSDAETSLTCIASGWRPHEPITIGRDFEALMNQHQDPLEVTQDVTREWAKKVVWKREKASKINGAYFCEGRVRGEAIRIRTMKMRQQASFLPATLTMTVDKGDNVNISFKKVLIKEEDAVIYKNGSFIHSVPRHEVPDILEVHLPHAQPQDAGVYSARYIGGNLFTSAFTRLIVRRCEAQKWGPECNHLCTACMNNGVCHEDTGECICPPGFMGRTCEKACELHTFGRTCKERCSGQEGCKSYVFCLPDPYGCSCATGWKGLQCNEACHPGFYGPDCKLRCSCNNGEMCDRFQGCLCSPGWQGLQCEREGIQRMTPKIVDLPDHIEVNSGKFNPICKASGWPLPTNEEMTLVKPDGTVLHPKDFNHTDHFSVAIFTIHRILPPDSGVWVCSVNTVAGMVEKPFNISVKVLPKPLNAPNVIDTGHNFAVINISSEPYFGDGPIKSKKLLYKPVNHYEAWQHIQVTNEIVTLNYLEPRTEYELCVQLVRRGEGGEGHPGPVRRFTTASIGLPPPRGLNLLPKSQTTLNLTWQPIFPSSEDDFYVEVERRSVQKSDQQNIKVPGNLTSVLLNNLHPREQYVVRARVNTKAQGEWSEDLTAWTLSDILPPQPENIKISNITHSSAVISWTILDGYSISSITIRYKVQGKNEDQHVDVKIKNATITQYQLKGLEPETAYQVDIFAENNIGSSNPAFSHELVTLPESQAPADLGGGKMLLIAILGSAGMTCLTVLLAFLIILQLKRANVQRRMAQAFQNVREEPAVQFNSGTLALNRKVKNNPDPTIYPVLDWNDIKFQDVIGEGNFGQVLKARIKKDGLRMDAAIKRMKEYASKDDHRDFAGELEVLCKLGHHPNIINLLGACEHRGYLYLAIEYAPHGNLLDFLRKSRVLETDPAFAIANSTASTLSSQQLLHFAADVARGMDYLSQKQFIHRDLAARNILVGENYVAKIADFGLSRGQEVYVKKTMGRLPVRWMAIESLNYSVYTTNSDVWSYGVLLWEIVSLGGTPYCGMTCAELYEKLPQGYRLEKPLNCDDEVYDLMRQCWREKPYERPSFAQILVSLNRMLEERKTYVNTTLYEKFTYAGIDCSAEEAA

FGR (human) = FGR (human) (UniProt P09769)
[5] = test system: ABL1 (human), P00519 [F317I]
LCK (human) = LCK (human) (UniProt P06239)
CDK16 (human) = CDK16 (human) (UniProt Q00536)
[6] = test system: FLT3 (human), P36888 [N841I]
FER (human) = FER (human) (UniProt P16591)
CAMK1D (human) = CAMK1D (human) (UniProt Q8IU85)
CAMK1D (human), sequence (Q8IU85 whole entry, looked up): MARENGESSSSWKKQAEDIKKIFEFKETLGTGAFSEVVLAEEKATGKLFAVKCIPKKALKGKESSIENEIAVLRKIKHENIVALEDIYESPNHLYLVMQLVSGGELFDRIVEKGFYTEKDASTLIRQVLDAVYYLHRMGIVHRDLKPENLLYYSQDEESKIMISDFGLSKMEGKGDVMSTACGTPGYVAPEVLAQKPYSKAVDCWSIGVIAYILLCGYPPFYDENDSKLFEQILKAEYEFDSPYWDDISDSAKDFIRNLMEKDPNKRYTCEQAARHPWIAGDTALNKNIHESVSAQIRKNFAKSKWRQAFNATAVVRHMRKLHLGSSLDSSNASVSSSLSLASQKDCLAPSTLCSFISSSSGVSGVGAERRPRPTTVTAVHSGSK

PRKAA1 (human) = PRKAA1 (human) (UniProt Q13131)
SIK1 (human) = SIK1 (human) (UniProt P57059)
TTK (human) = TTK (human) (UniProt P33981)
TTK (human), sequence (P33981 whole entry, looked up): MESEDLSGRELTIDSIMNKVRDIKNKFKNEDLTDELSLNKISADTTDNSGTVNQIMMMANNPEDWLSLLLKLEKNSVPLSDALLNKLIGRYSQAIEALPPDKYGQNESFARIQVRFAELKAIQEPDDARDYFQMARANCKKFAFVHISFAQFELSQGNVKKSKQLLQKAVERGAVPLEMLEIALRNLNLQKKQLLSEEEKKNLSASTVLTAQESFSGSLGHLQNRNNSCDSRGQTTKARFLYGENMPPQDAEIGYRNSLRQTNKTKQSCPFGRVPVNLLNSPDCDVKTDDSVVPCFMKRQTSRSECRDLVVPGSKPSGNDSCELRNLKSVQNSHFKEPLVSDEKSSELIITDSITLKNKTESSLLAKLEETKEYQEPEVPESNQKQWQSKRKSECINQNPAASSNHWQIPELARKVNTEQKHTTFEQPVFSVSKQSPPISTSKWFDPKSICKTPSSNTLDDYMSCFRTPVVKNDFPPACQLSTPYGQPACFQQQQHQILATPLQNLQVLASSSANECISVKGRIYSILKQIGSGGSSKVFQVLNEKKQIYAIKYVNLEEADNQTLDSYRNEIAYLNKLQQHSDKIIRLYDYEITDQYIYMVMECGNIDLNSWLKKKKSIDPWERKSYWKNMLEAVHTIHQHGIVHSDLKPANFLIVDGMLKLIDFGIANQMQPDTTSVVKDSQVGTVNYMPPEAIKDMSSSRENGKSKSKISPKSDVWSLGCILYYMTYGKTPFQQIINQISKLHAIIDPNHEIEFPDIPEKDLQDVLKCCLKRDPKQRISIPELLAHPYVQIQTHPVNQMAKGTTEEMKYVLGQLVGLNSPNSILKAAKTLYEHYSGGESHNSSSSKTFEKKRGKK

[7] = test system: ABL1 (human), P00519 [E255K]
[8] = test system: ABL1 (human), P00519 [M351T]
INSR (human) = INSR (human) (UniProt P06213)
KDR (human) = KDR (human) (UniProt P35968)
EPHA2 (human) = EPHA2 (human) (UniProt P29317)
EPHA8 (human) = EPHA8 (human) (UniProt P29322)
CaMK1 (human) = CaMK1 (human) (UniProt Q14012)
CDK7 (human) = CDK7 (human) (UniProt P50613)
[9] = test system: EGFR (human), P00533 [A750P; 747-749 del]
CSF1R (human) = CSF1R (human) (UniProt P07333)
RAF1 (human) = RAF1 (human) (UniProt P04049)
CSK (human) = CSK (human) (UniProt P41240)
HCK (human) = HCK (human) (UniProt P08631)
HCK (human), sequence (P08631 whole entry, looked up): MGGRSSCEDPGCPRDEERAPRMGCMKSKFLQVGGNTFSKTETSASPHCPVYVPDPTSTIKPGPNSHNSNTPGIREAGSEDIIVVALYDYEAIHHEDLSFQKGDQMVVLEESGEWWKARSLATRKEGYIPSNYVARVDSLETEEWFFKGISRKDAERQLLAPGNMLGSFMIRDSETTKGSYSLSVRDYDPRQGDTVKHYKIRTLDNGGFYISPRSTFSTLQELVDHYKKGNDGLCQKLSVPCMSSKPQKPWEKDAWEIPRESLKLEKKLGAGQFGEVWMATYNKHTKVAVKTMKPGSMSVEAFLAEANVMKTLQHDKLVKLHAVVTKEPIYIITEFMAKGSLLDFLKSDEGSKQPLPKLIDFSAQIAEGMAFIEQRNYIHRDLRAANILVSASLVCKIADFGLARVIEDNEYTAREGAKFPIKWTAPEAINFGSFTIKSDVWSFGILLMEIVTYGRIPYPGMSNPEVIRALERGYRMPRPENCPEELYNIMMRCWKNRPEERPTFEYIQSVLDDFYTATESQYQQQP

MAPK12 (human) = MAPK12 (human) (UniProt P53778)
SRC (human) = SRC (human) (UniProt P12931)
CDK15 (human) = CDK15 (human) (UniProt Q96Q40)
CDK17 (human) = CDK17 (human) (UniProt Q00537)
CDK17 (human), sequence (Q00537 whole entry, looked up): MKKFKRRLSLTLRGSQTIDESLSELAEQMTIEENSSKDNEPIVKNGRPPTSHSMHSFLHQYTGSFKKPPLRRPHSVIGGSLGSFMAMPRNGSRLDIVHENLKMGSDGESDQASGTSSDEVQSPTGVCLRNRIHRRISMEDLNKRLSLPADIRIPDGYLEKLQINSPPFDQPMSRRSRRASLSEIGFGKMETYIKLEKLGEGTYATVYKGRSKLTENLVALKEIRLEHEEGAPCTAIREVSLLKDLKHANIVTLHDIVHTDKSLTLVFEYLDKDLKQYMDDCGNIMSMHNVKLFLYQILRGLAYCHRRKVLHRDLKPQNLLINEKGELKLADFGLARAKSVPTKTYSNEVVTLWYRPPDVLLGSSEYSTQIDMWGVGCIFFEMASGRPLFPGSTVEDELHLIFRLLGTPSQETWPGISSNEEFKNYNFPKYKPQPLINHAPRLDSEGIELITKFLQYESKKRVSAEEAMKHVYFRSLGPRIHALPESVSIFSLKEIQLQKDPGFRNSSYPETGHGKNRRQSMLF

SRMS (human) = SRMS (human) (UniProt Q9H3Y6)
FLT3 (human) = FLT3 (human) (UniProt P36888)
[10] = test system: FLT3 (human), P36888 [K663Q]
RIPK1 (human) = RIPK1 (human) (UniProt Q13546)

FES (human), sequence (P07332 whole entry, looked up): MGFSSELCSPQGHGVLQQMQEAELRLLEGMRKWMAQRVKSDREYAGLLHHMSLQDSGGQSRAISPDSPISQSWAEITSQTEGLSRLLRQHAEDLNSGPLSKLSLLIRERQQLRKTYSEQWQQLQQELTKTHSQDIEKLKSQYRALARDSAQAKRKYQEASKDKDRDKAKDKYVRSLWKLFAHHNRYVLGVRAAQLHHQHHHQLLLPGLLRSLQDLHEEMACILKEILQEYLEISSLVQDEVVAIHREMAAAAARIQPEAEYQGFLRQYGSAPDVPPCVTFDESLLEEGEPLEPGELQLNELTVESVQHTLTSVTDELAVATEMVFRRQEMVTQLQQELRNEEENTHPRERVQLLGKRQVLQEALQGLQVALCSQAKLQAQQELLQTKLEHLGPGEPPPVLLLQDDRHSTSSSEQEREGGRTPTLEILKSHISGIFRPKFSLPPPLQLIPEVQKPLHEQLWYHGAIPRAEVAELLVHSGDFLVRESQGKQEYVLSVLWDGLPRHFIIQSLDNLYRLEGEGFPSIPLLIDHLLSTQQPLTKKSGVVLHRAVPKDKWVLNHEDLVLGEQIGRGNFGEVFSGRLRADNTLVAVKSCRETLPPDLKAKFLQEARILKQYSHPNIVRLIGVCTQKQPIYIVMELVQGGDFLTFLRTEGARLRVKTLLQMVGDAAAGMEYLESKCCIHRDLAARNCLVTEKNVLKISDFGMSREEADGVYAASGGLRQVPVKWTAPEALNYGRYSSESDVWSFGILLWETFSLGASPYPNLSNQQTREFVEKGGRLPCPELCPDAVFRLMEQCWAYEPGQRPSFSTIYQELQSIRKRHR

kinase still bound, per cent of control (FES (human)): 2.2%
kinase still bound, per cent of control [1]: 14%
kinase still bound, per cent of control [2]: 0%
kinase still bound, per cent of control [3]: 14%
kinase still bound, per cent of control [4]: 0.1%
kinase still bound, per cent of control (PTK6 (human)): 28%
kinase still bound, per cent of control (EGFR (human)): 5.6%
kinase still bound, per cent of control (FGFR1 (human)): 1.7%
kinase still bound, per cent of control (STK10 (human)): 0%
kinase still bound, per cent of control (TEK (human)): 0%
kinase still bound, per cent of control (FGR (human)): 1.2%
kinase still bound, per cent of control [5]: 0.05%
kinase still bound, per cent of control (LCK (human)): 0.8%
residual activity (CDK16 (human)): 11%
kinase still bound, per cent of control [6]: 0%
kinase still bound, per cent of control (FER (human)): 0.5%
kinase still bound, per cent of control (CAMK1D (human)): 6.2%
kinase still bound, per cent of control (PRKAA1 (human)): 33%
kinase still bound, per cent of control (SIK1 (human)): 5.3%
kinase still bound, per cent of control (TTK (human)): 24%
kinase still bound, per cent of control [7]: 1.2%
kinase still bound, per cent of control [8]: 0.35%
kinase still bound, per cent of control (INSR (human)): 30%
kinase still bound, per cent of control (KDR (human)): 1.5%
kinase still bound, per cent of control (EPHA2 (human)): 3.1%
kinase still bound, per cent of control (EPHA8 (human)): 0.1%
kinase still bound, per cent of control (CaMK1 (human)): 0%
residual activity (CDK7 (human)): 2.4%
kinase still bound, per cent of control [9]: 1.5%
kinase still bound, per cent of control (CSF1R (human)): 0%
kinase still bound, per cent of control (RAF1 (human)): 7%
kinase still bound, per cent of control (CSK (human)): 0.45%
kinase still bound, per cent of control (HCK (human)): 0.4%
kinase still bound, per cent of control (MAPK12 (human)): 0%
kinase still bound, per cent of control (SRC (human)): 0.2%
residual activity (CDK15 (human)): 6%
residual activity (CDK17 (human)): 0.1%
kinase still bound, per cent of control (SRMS (human)): 4.6%
kinase still bound, per cent of control (FLT3 (human)): 0.15%
kinase still bound, per cent of control [10]: 0%
kinase still bound, per cent of control (RIPK1 (human)): 0%
SMILES: CCN1CCN(Cc2ccc(NC(=O)c3ccc(C)c(Oc4ccnc5[nH]ccc45)c3)cc2C(F)(F)F)CC1
